Experimental findings from US10577362B2, “Substituted 2, 4-diamino-quinoline derivatives for use in the treatment of proliferative diseases” (GENOSCIENCE PHARMA, priority 2016, dated 2020) are described below.

Where a name gives a salt, the structure may show the parent alone.

Common to all, as to assay type: cell-based, human
The test system of test [1] is HepG2 (hepatocellular carcinoma) cell line. In words: CellTiter-Glo luminescent cell viability assay, HepG2. The following applies: Homo sapiens; for EC50: HepG2 cell line, 72 h incubation, CellTiter-Glo, read-out: EC50, growth inhibition of HepG2; for viability at 4 µM / viability at 10 µM: HepG2, HepG, 72 h; for viability at 4 µM: compound at 4 μM; for viability at 10 µM: compound at 10 μM. The procedure: (§1) All cell lines were maintained in medium containing 1% penicillin-streptomycin (Dutscher, P06-07100) and 10% Fetal Bovine Serum (Hyclone Dutscher, RZK35922) cultured at 37° C. with 5% CO2. HepG2 (hepatocellular carcinoma), cell line was cultured in Dulbecco's modified Eagle's medium low glucose (Gibco, 21885025), Huh7 (hepatocellular carcinoma), HCT-116 (colorectal carcinoma), PANC-1 (prancreatic carcinoma) and A375 (malignant melanoma) cell lines were cultured in Dulbecco's modified Eagle's medium (Dutscher, L0103). MOLM-14 (acute myeloid leukemia) cell line was maintained in MEM alpha medium (Gibco, 22561-021). 786-0 (renal adenocarcinoma) cell lines were maintained in RPMI 1640 medium (Dutscher, L0498).
(§2) Cell viability was measured using the CellTiter-Glo® luminescent cell viability assay as described by the manufacturer (Promega, Ref G7571) using an Infinite F200Pro luminometer (Tecan). Briefly, for adherent cells, cells were plated onto 96-well plates (white with clear bottom) in 90 μL of media per well and were allowed to grow overnight before the assay. For cells growing in suspension, cells were plated onto 96-well plates 1 h before the assay.
(§3) Compounds were resuspended in H2O or DMSO and added at different concentrations to each well, and cell cultures were incubated for 72 h. Each diluent (H2O or DMSO) were used as a control, and all compounds were tested in a constant percentage of H2O or DMSO. On the day of the reading, plates are equilibrated 30 min at room temperature before the addition of 100 μL of CellTiter-Glo® and luminescence was measured using an Infinite F200Pro (Tecan). % cell viability were expressed as a percentage of the signal obtained for cell cultures treated with diluent. EC50 values were determined as the dose of compound required to reduce luminescent values to 50% of the signal obtained for cell cultures treated with diluent. The experimental data were analyzed using a computer program, Graphpad Prism v5 (GraphPad Software, Inc. La Jolla, Calif.). All points were at least done in duplicate.
(In general: Cellular ATP, detected with luciferase, serves as a proxy for viable cell number.)

Test [2] has as its system Huh7 (hepatocellular carcinoma) cell line. Briefly: CellTiter-Glo luminescent cell viability assay, Huh7. The following applies: Homo sapiens, Huh-7; for EC50: Huh7 cell line, 72 h incubation, CellTiter-Glo, read-out: EC50, growth inhibition of Huh7; for viability at 4 µM: Huh7, compound at 4 μM; for viability at 4 µM / viability at 10 µM: 72 h; for viability at 10 µM: Huh7, compound at 10 μM. The procedure:
as §1, §2, §3

For test [3], the system named is MOLM-14 (acute myeloid leukemia) cell line. Briefly: CellTiter-Glo luminescent cell viability assay, MOLM-14. The following applies: Homo sapiens; for EC50: MOLM-14 cell line, 72 h incubation, CellTiter-Glo, read-out: EC50, growth inhibition of MOLM-14; for viability at 4 µM: MOLM-14, compound at 4 μM; for viability at 4 µM / viability at 10 µM: 72 h; for viability at 10 µM: MOLM-14, compound at 10 μM. The protocol:
as §1, §2, §3

Test [4] relates to 786-O (renal adenocarcinoma) cell line. Briefly: CellTiter-Glo luminescent cell viability assay, 786-O. The following applies: Homo sapiens, 786-0; for EC50: 786-O cell line, 72 h incubation, CellTiter-Glo, read-out: EC50, growth inhibition of 786-O; for viability at 4 µM / viability at 10 µM: 786-O, 72 h; for viability at 4 µM: compound at 4 μM; for viability at 10 µM: compound at 10 μM. The protocol: as §1, §2, §3

Test [5] deals with HCT-116 (colorectal carcinoma) cell line. In words: CellTiter-Glo luminescent cell viability assay, HCT-116. The following applies: Homo sapiens; for EC50: HCT-116 cell line, 72 h incubation, CellTiter-Glo, read-out: EC50, growth inhibition of HCT-116; for viability at 4 µM: HCT-116, compound at 4 μM; for viability at 4 µM / viability at 10 µM: 72 h; for viability at 10 µM: HCT-116, compound at 10 μM. The protocol: as §1, §2, §3

In test [6] the test system is A375 (malignant melanoma) cell line. Briefly: CellTiter-Glo luminescent cell viability assay, A375. The following applies: Homo sapiens, A-375; for EC50: A375 cell line, 72 h incubation, CellTiter-Glo, read-out: EC50, growth inhibition of A375; for viability at 4 µM: A375, compound at 4 μM; for viability at 4 µM / viability at 10 µM: 72 h; for viability at 10 µM: A375, compound at 10 μM. The protocol:
as §1, §2, §3

In the case of `Clc1ccc(CNc2cc(N3CC(N4CCOCC4)C3)c3ccccc3n2)cc1` [Compound 118, 2-(4-chlorobenzylamino)-4-[3-(morpholin-4-yl)azetidin-1-yl]quinoline hydrochloride], the EC50 (commonly the concentration needed to bring the measured effect to its halfway point) fell in the range of 5 to 10 µM in test [1]; 5 to 10 µM in test [2]; 5 to 10 µM in test [3]; 0.5 to 5 µM in test [4]; 5 to 10 µM in test [5]; 5 to 10 µM in test [6].

With `Cc1ccnc(Nc2ccc(Nc3nc4ccccc4c(N4CCC(NC(C)(C)C)CC4)c3C)cc2)n1` [Compound 532Me, 2-[4-(4-methylpyrimidin-2-ylamino)phenylamino]-3-methyl-4-(4-tert-butylaminopiperidin-1-yl)quinoline], the viability (as a rule, a read-out of living cells in per cent, often relative to untreated cells) at 4 µM in test [1] came out at 12.3%; in test [2], 55.9%; in test [3] it was 65.5%; in test [4], 0.3%; in test [5], 16%; in test [6] it was 23.3%. The viability at 10 µM turned out to be 0.3% in test [1]; 0.5% in test [2]; 0.4% in test [3]; 0.3% in test [4]; 0.3% in test [5]; 0.3% in test [6].

Take `CC(C)(C)NC1CCN(c2c(C#N)c(Nc3ccc(OC(F)(F)F)cc3)nc3ccccc23)CC1` [Compound 3266CN, 2-[4-(trifluoromethyloxy)phenylamino]-3-cyano-4-[4-(tert-butylamino)piperidin-1-yl]quinoline]: the viability at 4 µM in test [1] was determined as 60.6%; in test [2] it was 78%; in test [3], 91.4%; in test [4], 28.1%; in test [5], 17.7%; in test [6], 48.1%. For the same compound, the viability at 10 µM in test [1] stood at 24.9%; in test [2] it was 49.1%; in test [3], 50.3%; in test [4] it was 3.8%; in test [5], 4.7%; in test [6], 21.1%.

As for `CN(Cc1ccc(Cl)cc1)c1cc(N2CCC(NC(C)(C)C)CC2)c2ccccc2n1` [Compound 212, 2-(N-4-chlorobenzyl-N-methylamino)-4-[4-(tert-butylamino)-piperidin-1-yl]-quinoline, Hydrochloride Salt], the EC50 in test [1] was 0.5 to 5 µM; in test [2], 5 to 10 µM; in test [3], 5 to 10 µM; in test [4] it was 5 to 10 µM; in test [5], 0.5 to 5 µM; in test [6], 0.5 to 5 µM.

Turning to `Cc1ccnc(Nc2ccc(Nc3nc4ccccc4c(N4CCC(NC(C)(C)C)CC4)c3C#N)cc2C)n1` [Compound 500CN, 2-[4-(4-methyl-2-pyrimidinamino)-3-methyl-phenylamino]-3-cyano-4-(4-tert-butylaminopiperidin-1-yl)-quinoline], the EC50 was in the range of 5 to 10 µM in test [1]; 5 to 10 µM in test [2]; 5 to 10 µM in test [3]; 5 to 10 µM in test [4]; 0.5 to 5 µM in test [5]; 5 to 10 µM in test [6].

With `Clc1ccc(CNc2cc(N3CCC(Oc4ccncc4)CC3)c3ccccc3n2)cc1` [Compound 2950, 2-(4-chlorobenzylamino)-4-[4-(pyridin-4-yloxy)piperidin-1-yl]quinoline hydrochloride], the EC50 in test [1], in test [2], in test [3], in test [4], in test [5] and in test [6] was 0.5 to 5 µM throughout.

On to `N#Cc1c(NCc2ccc(Cl)cc2)nc2ccccc2c1N1CCC(Oc2ccc(Cl)cc2)CC1` [Compound 3226CN, 2-(4-chlorobenzylamino)-3-cyano-4-[4-(4-chlorophenoxy)piperidin-1-yl]quinoline], for which the viability at 4 µM came out at 94% in test [1]; 117% in test [2]; 101% in test [3]; 96% in test [4]; 96.8% in test [5]; 97.8% in test [6]. The viability at 10 µM came out at 82.8% in test [1]; 109% in test [2]; 97.8% in test [3]; 89.8% in test [4]; 86.8% in test [5]; 94.1% in test [6].

Turning to `N#Cc1c(NCc2ccc(Cl)cc2)nc2ccccc2c1N1CCC(Oc2ccc(F)cc2)CC1` [Compound 2942CN, 2-(4-chlorobenzylamino)-3-cyano-4-[4-(4-fluorophenoxy)piperidin-1-yl]quinoline], the viability at 4 µM worked out at 99.1% in test [1]; 94.3% in test [2]; 98.2% in test [3]; 87.7% in test [4]; 91% in test [5]; 101% in test [6]. Besides, the viability at 10 µM in test [1] amounted to 75.3%; in test [2], 87.9%; in test [3], 88.1%; in test [4] it was 81.3%; in test [5], 75.1%; in test [6] it was 94.9%.

For `O[C@@H]1CCN(c2cc(NCc3ccc(Cl)cc3)nc3ccccc23)C1` [Compound 2988, (3R) 2-(4-chlorobenzylamino)-4-(3-hydroxypyrrolidin-1-yl)quinoline hydrochloride], the EC50 in test [1] fell in the range of 0.5 to 5 µM; in test [2], 0.5 to 5 µM; in test [3] it was 0.5 to 5 µM; in test [4], 0.5 to 5 µM; in test [5], 5 to 10 µM; in test [6], 0.5 to 5 µM.

On to `Cc1cccc(OC2CCN(c3cc(NCc4ccc(Cl)cc4)nc4ccccc34)CC2)c1` [Compound 2946, 2-(4-chlorobenzylamino)-4-[4-(m-tolyloxy)piperidin-1-yl]quinoline hydrochloride], for which the EC50 in test [1] lay within 5 to 10 µM; in test [2] it was 5 to 10 µM; in test [3] it was 5 to 10 µM; in test [4] it was 5 to 10 µM; in test [5], 5 to 10 µM; in test [6], 0.5 to 5 µM.

Turning to `OC1CCN(c2cc(NCc3ccc(Cl)cc3)nc3ccccc23)CC1` [Compound 2916, 2-(4-chlorobenzylamino)-4-(4-hydroxypiperidin-1-yl)quinoline, hydrochloride], the EC50 in test [1] lay within 0.5 to 5 µM; in test [2] it was 0.5 to 5 µM; in test [4], 5 to 10 µM; in test [5] it was 5 to 10 µM; in test [6] it was 5 to 10 µM.

In the case of `Cc1cc(F)cc2c(N3CCC(NC(C)(C)C)CC3)cc(NCc3ccc(Cl)cc3)nc12` [Compound 580, 2-(4-chlorobenzylamino)-4-[4-(tert-butylamino)piperidin-1-yl]-6-fluoro-8-methylquinoline], the half-maximal effective concentration (EC50) in test [1], in test [3], in test [4], in test [5] and in test [6] was 0.5 to 5 µM in each case.

Regarding `O=C(C1CCN(c2cc(NCc3ccc(Cl)cc3)nc3ccccc23)CC1)N1CCCC1` [Compound 1648, 2-(4-chlorobenzylamino)-4-[4-(pyrrolidine-1-carbonyl)piperidin-1-yl]quinoline, hydrochloride], the EC50 in test [2] was in the range of 0.5 to 5 µM.
